Test results published in patent publication US20040191926A1 (priority 2001, published 2004).

Key:
Type in all cases: biochemical
SHP2 = target: T1, SHP2 (Homo sapiens, UniProt Q06124); assay: Phosphatase panel, pNPP assay; details: 2 mM pNPP; read-out: Inhibition Potency, IC50
T1 construct: the catalytic domains of SHP1 and SHP2 were expressed and purified as (His)6-fusion proteins; (His)6; made in house
T1 sequence (Q06124 247-517 limits assumed): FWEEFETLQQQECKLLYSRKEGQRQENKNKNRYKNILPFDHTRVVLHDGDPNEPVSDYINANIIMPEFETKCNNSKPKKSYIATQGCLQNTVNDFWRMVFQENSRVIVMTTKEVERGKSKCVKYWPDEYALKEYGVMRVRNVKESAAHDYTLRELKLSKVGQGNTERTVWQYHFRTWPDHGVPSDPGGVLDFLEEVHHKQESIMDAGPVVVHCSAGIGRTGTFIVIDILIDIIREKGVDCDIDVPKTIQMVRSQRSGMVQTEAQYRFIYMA

VHR = target: T2, VHR (Homo sapiens, UniProt P51452); assay: Phosphatase panel, pNPP assay; details: at 10 μM
T2 construct: made in house; host or cells: E. coli

Cdc25A = target: T3, Cdc25A (Homo sapiens, UniProt P30304); assay: Phosphatase panel, pNPP assay; details: at 10 μM
T3 sequence (P30304 1-524): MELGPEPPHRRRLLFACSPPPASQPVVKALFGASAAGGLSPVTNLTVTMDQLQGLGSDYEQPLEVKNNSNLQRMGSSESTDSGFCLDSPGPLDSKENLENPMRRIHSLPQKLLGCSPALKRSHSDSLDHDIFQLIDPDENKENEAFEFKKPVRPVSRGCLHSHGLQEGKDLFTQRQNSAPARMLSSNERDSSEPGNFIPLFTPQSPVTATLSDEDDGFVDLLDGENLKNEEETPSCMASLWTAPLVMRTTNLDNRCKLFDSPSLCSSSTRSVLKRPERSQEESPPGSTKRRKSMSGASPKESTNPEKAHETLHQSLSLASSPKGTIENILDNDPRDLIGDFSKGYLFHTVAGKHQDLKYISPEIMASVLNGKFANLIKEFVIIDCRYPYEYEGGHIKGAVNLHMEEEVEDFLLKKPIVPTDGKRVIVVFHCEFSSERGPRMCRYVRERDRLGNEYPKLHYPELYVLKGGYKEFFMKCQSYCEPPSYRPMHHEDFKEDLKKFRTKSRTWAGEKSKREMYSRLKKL

MKP3 = assay: Phosphatase panel, pNPP assay; details: at 10 μM
CD45 = target: T4, CD45 (Homo sapiens, UniProt P08575); assay: Phosphatase panel, pNPP assay; details: at 10 μM
T4 construct: The intracellular fragment of PTPa, LAR and CD45 containing both of the PTPase domains was cleaved off the fusion protein; GST (cleaved yes); made in house
T4 sequence (P08575 599-1306 limits assumed): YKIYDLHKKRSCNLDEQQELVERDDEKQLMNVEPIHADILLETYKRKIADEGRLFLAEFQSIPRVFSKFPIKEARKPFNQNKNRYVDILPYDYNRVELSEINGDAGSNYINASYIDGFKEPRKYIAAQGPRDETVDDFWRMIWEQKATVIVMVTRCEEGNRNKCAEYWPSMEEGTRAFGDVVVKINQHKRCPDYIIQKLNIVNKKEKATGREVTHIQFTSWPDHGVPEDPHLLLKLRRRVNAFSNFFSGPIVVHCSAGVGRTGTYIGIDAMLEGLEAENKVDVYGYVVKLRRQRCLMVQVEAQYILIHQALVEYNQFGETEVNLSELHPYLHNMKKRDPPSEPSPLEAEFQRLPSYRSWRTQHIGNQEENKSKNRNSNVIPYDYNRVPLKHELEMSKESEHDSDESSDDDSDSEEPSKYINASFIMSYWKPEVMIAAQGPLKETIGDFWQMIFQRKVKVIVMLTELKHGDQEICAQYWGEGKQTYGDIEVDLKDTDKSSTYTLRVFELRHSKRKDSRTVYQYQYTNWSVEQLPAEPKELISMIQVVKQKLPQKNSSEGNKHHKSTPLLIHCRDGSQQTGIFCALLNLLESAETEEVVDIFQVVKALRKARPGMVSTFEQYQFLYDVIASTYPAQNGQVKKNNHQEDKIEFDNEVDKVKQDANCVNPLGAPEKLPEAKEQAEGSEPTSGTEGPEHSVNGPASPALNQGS

TCPTP = target: T5, TCPTP (Homo sapiens, UniProt P17706); assay: PTPase activity assay with pNPP substrate; details: pH 7.0, ionic strength 0.15 M, read-out: Inhibition Potency, Ki
T5 construct: catalytic domain (amino acid residues 1-288) of the human T cell PTPase (TCPTP); made in house
T5 sequence (P17706 1-288): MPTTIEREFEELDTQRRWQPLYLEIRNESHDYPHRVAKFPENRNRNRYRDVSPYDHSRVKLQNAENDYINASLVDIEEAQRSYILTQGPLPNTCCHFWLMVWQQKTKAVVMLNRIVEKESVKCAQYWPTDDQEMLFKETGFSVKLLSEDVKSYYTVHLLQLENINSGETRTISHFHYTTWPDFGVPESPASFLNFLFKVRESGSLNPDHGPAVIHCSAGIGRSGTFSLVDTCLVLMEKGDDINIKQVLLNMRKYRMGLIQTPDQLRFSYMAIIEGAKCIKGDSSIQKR

SHP1 = target: T6, SHP1 (Homo sapiens, UniProt P29350); assay: Phosphatase panel, pNPP assay; details: 2 mM pNPP; read-out: Inhibition Potency, IC50
T6 construct: the catalytic domains of SHP1 and SHP2 were expressed and purified as (His)6-fusion proteins; (His)6; made in house
T6 sequence (P29350 244-515 limits assumed): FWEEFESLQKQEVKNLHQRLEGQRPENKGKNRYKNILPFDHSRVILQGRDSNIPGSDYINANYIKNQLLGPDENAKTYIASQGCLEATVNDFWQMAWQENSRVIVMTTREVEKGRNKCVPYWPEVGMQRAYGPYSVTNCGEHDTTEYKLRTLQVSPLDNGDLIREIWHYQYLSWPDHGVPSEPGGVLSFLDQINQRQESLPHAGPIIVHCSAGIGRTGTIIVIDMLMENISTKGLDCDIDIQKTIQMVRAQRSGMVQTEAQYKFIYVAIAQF

T2 sequence (P51452 whole entry, species assumed): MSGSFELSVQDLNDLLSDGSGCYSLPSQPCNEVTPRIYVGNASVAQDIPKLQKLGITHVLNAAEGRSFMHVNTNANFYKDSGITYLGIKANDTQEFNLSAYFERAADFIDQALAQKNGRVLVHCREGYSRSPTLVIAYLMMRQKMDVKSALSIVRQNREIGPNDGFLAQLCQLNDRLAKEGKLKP

NC(=O)C(Cc1ccc(C(F)(F)P(=O)(O)O)cc1)NC(=O)C(CC(=O)O)NC(=O)Cc1ccc(C(F)(F)P(=O)(O)O)cc1 (stereo not shown) [Compound 40]
IC50 (SHP2): 10 µM
Inhibition Potency (VHR): No inhibition at 10 μM
Inhibition Potency (Cdc25A): No inhibition at 10 μM
Inhibition Potency (MKP3): No inhibition at 10 μM
Inhibition Potency (CD45): No inhibition at 10 μM
Ki (TCPTP): 0.026 µM
IC50 (SHP1): 11 µM
